According to the RepoRT retention time repository:
Structures can show the parent of a compound that is named as a salt.

assay: RP, Thermo Scientific Hypersil GOLD, 1.9 µm, 40 °C, 0.4 mL/min; A: water + 0.1% formic acid, pH 3; B: acetonitrile + 0.1% formic acid, pH 3; gradient (min/%B) 0/0 1/0 11/100 13/100 14/0 16/0; details: stereoisomer not certain

NC(=O)c1ccccc1O [SALICYLAMIDE] and O=C(O)c1ccccc1O [SALICYLATE] are within 1.5-fold of each other in LC retention time: 5.33 min for the first, 6.26 min for the second.

First: CC1NCCc2cc(O)c(O)cc21 (stereo unspecified) [SALSOLINOL]
Second: Cc1cc(O)cc2c1OC(C)(CCC(=O)O)CC2 (stereo unspecified) [delta CEHC]
The LC retention time of the first is 8.4-fold lower: 0.82 min for the first, 6.88 min for the second.

Compared with CNCC(=O)O [SARCOSINE], COC(=O)CCC(=O)O [mono-Methyl hydrogen succinate] is 6.4-fold higher in LC retention time: 0.62 min for the first, 3.97 min for the second.

First: NCC[Se][Se]CCN [SELENOCYSTAMINE]
Second: C[Se]CCC(N)C(=O)O (stereo unspecified) [SELENOMETHIONINE]
The LC retention time of the first is 1.6-fold lower: 0.56 min for the first, 0.92 min for the second.

First: CC=CC=CC(=O)O [SORBATE]
Second: CC(=O)C(=O)O [pyruvic acid]
The LC retention time of the first is 7.9-fold higher: 6.15 min for the first, 0.78 min for the second.

Compared with O=C(CO)C(O)C(O)C(O)CO (stereo unspecified) [SORBOSE], O=C(O)CC(CC(=O)O)C(=O)O [Tricarballylic acid] is 2.1-fold higher in LC retention time: 0.64 min for the first, 1.36 min for the second.

Going from CCCCCCCCCCCCCCCC(O)C(N)CO (stereo unspecified) [SPHINGANINE] to CCCCCCCCCCCCCCCCCCC(=O)O [nonadecanoic acid], the LC retention time falls from 9.45 min to 0.68 min (14-fold).

OCC1OC(OCC2OC(OCC3OC(OC4(CO)OC(CO)C(O)C4O)C(O)C(O)C3O)C(O)C(O)C2O)C(O)C(O)C1O (stereo unspecified) [STACHYOSE] and OCC1OC(OC2(CO)OC(CO)C(O)C2O)C(O)C(O)C1O (stereo unspecified) [SUCROSE] are within 1.5-fold of each other in LC retention time: 0.67 min for the first, 0.69 min for the second.

O=C(O)CCCCCCC(=O)O [SUBERATE] and O=C(O)CCCCCCCCC(=O)O [Sebacic acid] are within 1.5-fold of each other in LC retention time: 5.58 min for the first, 6.67 min for the second.

Cn1cnc2c1c(=O)[nH]c(=O)n2C [THEOBROMINE] and Cn1c(=O)c2[nH]cnc2n(C)c1=O [THEOPHYLLINE] are within 1.5-fold of each other in LC retention time: 4.02 min for the first, 4.42 min for the second.

Cc1ncc(C[n+]2csc(CCOP(=O)(O)O)c2C)c(N)n1 [THIAMINE MONOPHOSPHATE] and Cc1ncc(C[n+]2csc(CCOP(=O)([O-])OP(=O)(O)O)c2C)c(N)n1 [THIAMINE PYROPHOSPHATE] are within 1.5-fold of each other in LC retention time: 0.63 min for the first, 0.65 min for the second.

Going from Cc1ncc(C[n+]2csc(CCO)c2C)c(N)n1 [THIAMINE] to CSc1ncnc2nc[nH]c12 [THIOPURINE S-METHYLETHER], the LC retention time rises from 0.61 min to 4.8 min (7.9-fold).

First: Cc1cn(C2CC(O)C(COP(=O)(O)O)O2)c(=O)[nH]c1=O (stereo unspecified) [THYMIDINE-MONOPHOSPHATE]
Second: Cc1cn(C2CC(O)C(CO)O2)c(=O)[nH]c1=O (stereo unspecified) [THYMIDINE]
The LC retention time of the first is 4.5-fold lower: 0.82 min for the first, 3.68 min for the second.

Going from Cc1c[nH]c(=O)[nH]c1=O [THYMINE] to O=C([O-])c1c[nH]c(=O)[nH]c1=O [URACIL 5-CARBOXYLATE], the LC retention time falls from 1.47 min to 0.87 min (1.7-fold).

NC(=O)C1CCCN1C(=O)C(Cc1cnc[nH]1)NC(=O)C1CCC(=O)N1 (stereo unspecified) [THYROTROPIN RELEASING HORMONE] and O=C(O)C=Cc1cnc[nH]1 [UROCANATE] are within 1.5-fold of each other in LC retention time: 0.84 min for the first, 0.82 min for the second.

Compared with NC(Cc1cc(I)c(Oc2cc(I)c(O)c(I)c2)c(I)c1)C(=O)O (stereo unspecified) [THYROXINE], O=C(O)c1cc(=O)c2cccc(O)c2[nH]1 [XANTHURENATE] is 1.7-fold lower in LC retention time: 7.42 min for the first, 4.45 min for the second.

O=C(O)/C=C/c1ccccc1 [TRANS-CINNAMATE] and O=C/C=C/c1ccccc1 [Trans-Cinnamaldehyde] are within 1.5-fold of each other in LC retention time: 6.96 min for the first, 7.27 min for the second.

Going from OCC1OC(OC2OC(CO)C(O)C(O)C2O)C(O)C(O)C1O (stereo unspecified) [TREHALOSE] to CC1OC(OCC2OC(Oc3c(-c4ccc(O)c(O)c4)oc4cc(O)cc(O)c4c3=O)C(O)C(O)C2O)C(O)C(O)C1O (stereo unspecified) [rutin hydrate], the LC retention time rises from 0.65 min to 5.42 min (8.3-fold).

Going from CCCCCCCCCCCCCCCCCCCCCCC(=O)[O-] [TRICOSANOATE] to O=C(O)CCCCCCCCCC(=O)O [undecanedioic acid], the LC retention time falls from 14.6 min to 7.15 min (2-fold).

Going from C[n+]1cccc(C(=O)[O-])c1 [TRIGONELLINE] to COc1cc(C(=O)O)ccc1O [Vanillic acid], the LC retention time rises from 0.69 min to 4.97 min (7.2-fold).

NCCc1c[nH]c2ccccc12 [TRYPTAMINE] and O=C(O)/C=C/c1c[nH]c2ccccc12 [trans-3-indoleacrylic acid] are within 1.5-fold of each other in LC retention time: 4.7 min for the first, 6.57 min for the second.

First: NCCc1ccc(O)cc1 [TYRAMINE]
Second: O=C(O)CCc1ccccc1 [hydrocinnamic acid]
The LC retention time of the first is 5.5-fold lower: 1.24 min for the first, 6.87 min for the second.

Going from CCCCCCCC=CC(=O)OC(CC(=O)[O-])C[N+](C)(C)C (stereo not drawn) [Trans -2-decenoyl-l-carnitine] to CC(=O)OC(CC(=O)[O-])C[N+](C)(C)C (stereo not drawn) [o-acetyl-l-carnitine hydrochloride], the LC retention time falls from 7.45 min to 0.81 min (9.2-fold).

O=c1cc[nH]c(=O)[nH]1 [URACIL] and O=c1[nH]c(=O)c2[nH]cnc2[nH]1 [XANTHINE] are within 1.5-fold of each other in LC retention time: 0.84 min for the first, 0.82 min for the second.

O=c1[nH]c(=O)c2[nH]c(=O)[nH]c2[nH]1 [URATE] and O=c1[nH]c(=O)c2ncn(C3OC(COP(=O)(O)O)C(O)C3O)c2[nH]1 (stereo unspecified) [XANTHOSINE-MONOPHOSPHATE] are within 1.5-fold of each other in LC retention time: 0.81 min for the first, 0.83 min for the second.

Going from NC(=O)NCCC(=O)O [UREIDOPROPIONATE] to COC(=O)CCCCC(=O)O [mono-Methyl adipate], the LC retention time rises from 0.82 min to 5.42 min (6.6-fold).

O=c1ccn(C2OC(COP(=O)(O)O)C(O)C2O)c(=O)[nH]1 (stereo unspecified) [URIDINE MONOPHOSPHATE] and O=c1ccn(C2OC(CO)C(O)C2O)c(=O)[nH]1 (stereo unspecified) [URIDINE] are within 1.5-fold of each other in LC retention time: 0.76 min for the first, 0.82 min for the second.

Compared with O=c1ccn(C2OC(COP(=O)(O)OP(=O)(O)OP(=O)(O)O)C(O)C2O)c(=O)[nH]1 (stereo unspecified) [URIDINE TRIPHOSPHATE], O=c1c(-c2ccc(O)cc2)coc2cc(OC3OC(CO)C(O)C(O)C3O)ccc12 (stereo unspecified) [daidzin] is 8.7-fold higher in LC retention time: 0.6 min for the first, 5.24 min for the second.

First: CCOC(N)=O [Urethane]
Second: CCC(N)C(=O)O [alpha-aminobutyric acid (L-2-aminobutyric acid)]
The LC retention time of the first is 3.1-fold higher: 2.11 min for the first, 0.69 min for the second.

C=C1CCC(O)CC1=CC=C1CCCC2(C)C1CCC2C(C)C=CC(C)C(C)C (stereo unspecified) [VITAMIN D2] and CC(CCC(=O)O)C1CCC2C3CCC4CC(O)CCC4(C)C3CC(O)C12C (stereo unspecified) [deoxycholic acid] are within 1.5-fold of each other in LC retention time: 13.9 min for the first, 9.28 min for the second.

Compared with OC1COC(O)C(O)C1O (stereo unspecified) [XYLOSE], CC(CCC(=O)NCCS(=O)(=O)O)C1CCC2C3C(O)CC4CC(O)CCC4(C)C3CC(O)C12C (stereo unspecified) [taurocholic acid  sodium salt hydrate] is 11-fold higher in LC retention time: 0.64 min for the first, 7.13 min for the second.

COC1=C(OC)C(=O)C(CC=C(C)C)=C(C)C1=O [coenzyme Q1] and COC1=C(OC)C(=O)C(CC=C(C)CCC=C(C)C)=C(C)C1=O [coenzyme Q2] are within 1.5-fold of each other in LC retention time: 9.21 min for the first, 11 min for the second.

O=C(O)CNC(=O)c1ccccc1O [o-Hydroxyhippuric acid] and O=C(O)/C=C/c1cccc(O)c1 [trans-3-Hydroxycinnamic acid (m-Coumaric acid)] are within 1.5-fold of each other in LC retention time: 5.5 min for the first, 5.82 min for the second.

CC(=O)C1CCC2C3CC=C4CC(OS(=O)(=O)O)CCC4(C)C3CCC12C (stereo unspecified) [pregnenolone sulfate] and Oc1ccc(C=Cc2cc(O)cc(O)c2)cc1 [resveratrol] are within 1.5-fold of each other in LC retention time: 8.05 min for the first, 6.28 min for the second.

O=c1c(O)c(-c2ccc(O)c(O)c2)oc2cc(O)cc(O)c12 [quercetine dihydrate] and CCN(CC)CCCC(C)Nc1c2ccc(Cl)cc2nc2ccc(OC)cc12 (stereo unspecified) [quinacrine] are within 1.5-fold of each other in LC retention time: 6.55 min for the first, 5.61 min for the second.

For C[N+](C)(C)[O-] [trimethylamine N-oxide], the LC retention time was 0.64 min.
